Results from patent US20150119476A1, “DEVELOPMENT, CHARACTERIZATION, AND USE OF AN ANTI-HYPUSINATED eIF5A ANTIBODY TO DIAGNOSE DIABETES” (Indiana University Research and Technology Corp., priority 2013, published 2015).

Columns and labels:
[1] = molecular target: T1, DHS (Homo sapiens, UniProt P49366); experiment: in vitro hypusination reaction of recombinant eIF5A with DHS, DHH, spermidine and GC7, immunoblot read-out; format: biochemical
T1 construct: His6 (N); made in house; host or cells: E. coli
T1 sequence (P49366 1-369): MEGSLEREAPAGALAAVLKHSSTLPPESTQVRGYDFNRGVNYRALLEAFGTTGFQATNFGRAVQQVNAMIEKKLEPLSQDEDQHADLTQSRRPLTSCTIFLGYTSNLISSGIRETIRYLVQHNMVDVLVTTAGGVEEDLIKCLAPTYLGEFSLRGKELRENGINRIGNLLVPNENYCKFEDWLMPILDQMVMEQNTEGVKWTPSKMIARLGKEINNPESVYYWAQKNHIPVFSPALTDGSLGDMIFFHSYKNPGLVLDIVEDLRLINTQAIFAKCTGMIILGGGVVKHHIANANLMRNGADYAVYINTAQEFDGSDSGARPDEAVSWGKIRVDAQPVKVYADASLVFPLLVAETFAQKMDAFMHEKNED
From the text: Reactions in vitro—For in vitro experiments, eIF5A protein was purified from E. coli as a GST fusion, after which the GST tag was proteolytically removed. DHS protein was purified from E. coli as an N-terminal His6 fusion. Purified human DHH protein was purchased from OriGene. The hypusination reactions in vitro proceeded as previously published.
(§1) Antibodies and immunoblotting—The rabbit polyclonal antibody IU-88 against hypusinated human eIF5A was generated in rabbits using the synthetic hypusine-containing peptide C-Ahx-STSKTG[hypusine]HGHAKV-amide (SEQ ID NO. 1) by contract to 21st Century Biochemicals. Monoclonal mouse pan-anti-eIF5A antibody was from BD Biosciences and anti-actin antibody was from MP Biomedicals. Immunoblot analysis was visualized using a LiCor Odyssey fluorescence system following electrophoresis on a 4-20% SDS polyacrylamide gel. Primary antibodies were diluted 1:1500 (IU-88) and 1:10,000 (anti-pan-eIF5A).
In order to determine if IU-88 specifically recognizes the deoxyhypusine or hypusine forms of eIF5A, immunoblots of reactions in which recombinant human eIF5A was incubated in vitro with DHS, DHH, spermidine, and/or the potent DHS inhibitor GC7 were performed. Referring now to FIG. 1A. […] Increasing the DHS concentration and time of incubation led to increasing eIF5A signal intensity in these studies (data not shown).

[2] = system: 293T cells; experiment: GC7 treatment of transfected 293T cells, immunoblot of cell extracts; format: cell-based, human
Method: (§2) Cell culture, transfection and DHS inhibition—Human 293T and rat INS-1(832/13) β cells were cultured as described. Cells were transiently transfected with plasmids encoding EGFP-eIF5A, EGFP-eIF5A(K50A) and EGFP-DHS constructs using Lipofectamine 2000 (Invitrogen) for 16 hours before cell extraction or immunofluorescence analysis. The DHS inhibitor GC7 (Biosearch Technologies) was prepared and used in cell culture as previously described.
as §1
Referring now to FIG. 1D. When 293T cells are transfected with GFP-eIF5A, a weak but detectable signal corresponding to GFP-eIF5A is observed using IU-88 (lane 1).

[3] = system: INS-1 β cells; experiment: GC7 treatment of transfected INS-1 cells, immunoblot of cell extracts; format: cell-based, rat; details: increasing GC7 concentrations, FIG. 1E
Method: as §2, §1
Referring now to FIG. 1E.

## NCCCCCCCN=C(N)N [GC7]
[1]; co-incubation with 300 nM GC7, FIG. 1A lanes 3 and 6
  eIF5A signal intensity (IU-88 immunoblot): reduction in eIF5A signal intensity
[1]; higher concentrations of GC7 up to 10 μM, FIG. 1B
  inhibition of eIF5A signal intensity (IU-88 immunoblot): near-complete inhibition
[2]; 293T cells co-transfected with GFP-DHS, GC7, FIG. 1D lanes 5 and 6
  GFP-eIF5A signal detected by IU-88: corresponding decrease in the presence of GC7
[2]; 293T cells transfected with GFP-eIF5A, increasing concentrations of GC7, FIG. 1D lanes 2 and 3
  GFP-eIF5A signal detected by IU-88: signal decreases further
[2]; 293T cells, increasing GC7
  endogenous eIF5A signal recognized by IU-88: observed to decrease with increasing GC7
[3]
  GFP-eIF5A signal observed with IU-88: reduces the GFP-eIF5A signal observed with IU-88
  signal observed with the pan-anti-eIF5A antibody: also reduces the signal observed with the pan-anti-eIF5A antibody
